Literature values in patent US20250375548A1, “STERILIZATION PROCESS, SYSTEM AND PRODUCT INCLUDING MOLECULAR MOBILITY ENHANCER” (TEKDRY INTERNATIONAL, INC., priority 2019, published 2025).

Key:
[1] = @ 25° C.
[2] = 1,800 ppm at 44° C.

Row | SMILES | vapor pressure [1] [mmHg] | D-value [2]
1 | CCOCC [diethyl ether] | 520 | –
2 | CC(=O)OO [peracetic acid, reference compound] | 14.5 | –
3 | O=COO [performic acid] | 78 | lower than five
